Test results as given in patent US11440870B2, “Cannabidiolic acid esters compositions and uses thereof” (Yissum Research Development Company of the Hebrew …, priority 2017, dated 2022).

Tested on: anxiety-like responding in rats
Experiment: Light-dark box emergence test after foot shock stress (anxiety-like responding)
Type: in vivo, male Sprague-Dawley rats
Conditions: for Time spent in the light box after foot shock (FS) stress vs No FS: 0.01 μg·kg−1 i.p., 45 min before 5 min test, 24 h after FS
From the text: Animal procedures complied with the Canadian Council on Animal Care, and the protocols were approved by the Institutional Animal Care Committee at University of Guelph. Animal studies are reported in compliance with the ARRIVE guidelines (Kilkenny et al., 2010; McGrath and Lilley, 2015). A total of 200 näive male Sprague-Dawley rats, obtained from Charles River Laboratories (St Constant, Quebec), were used for all in vivo studies. Rats were individually housed (for acute nausea studies) or pair-housed [for anticipatory nausea and light-dark emergence studies] in home cages made of opaque white plastic (48×26×20 cm), containing bed-o-cob bedding from Harlan Laboratories, Inc. (Mississauga, Ontario), a brown paper towel, and Crinkl'Nest™ from The Andersons, Inc. (Maumee, Ohio). Additionally, in the home cage, rats were provided with a soft white paper container that was 14 cm long and 12 cm in diameter. All rats were subjected to an ambient temperature of 21° C. and a 12/12 h light-dark schedule (lights off at 07:00 h) and maintained on food (Highland Rat Chow [8640]) and water ad libitum. For the acute and anticipatory nausea studies, their body weights ranged from 263 to 329 g on the day of conditioning. For the light-dark emergence studies, their body weights ranged from 320 to 387 g on the day of test.
For the in vivo experiment 3, anxiolytic-like responding was evaluated using the light-dark emergence apparatus, which consisted of an opaque white plastic rectangular box that was divided into two compartments: a small (25 cm wide×20.5 cm long×20.5 cm high) enclosed dark box built of opaque black plastic with a door (8 cm wide×10 cm high) leading to a larger (39.5 cm long×25 cm wide) open lit box. The open lit box was illuminated by one lamp (with a 60 W bulb, 180 lux in the light chamber) positioned 115 cm above the center of the lit box. A video camera was mounted over the top of the light-dark box, and the video tapes were analyzed by the Ethovision software (Noldus Information Technology, Leesburg, Va., USA) for the duration of time spent in the light box for the 5 min test. For the foot shock (FS) session, the rats were placed in sound attenuating MED Associates fear conditioning chambers (St. Albans, Vt., USA). The 6 min FS session consisted of six 0.8 mA foot shocks delivered 1 min apart. Each 0.5 s shock was preceded by a 30 s auditory tone (90 Db, 5000 Hz) as described by Bluett et al. (2014).
The effect of CBDA and HU-580 on anxiety-like responding was evaluated using the light-dark box emergence test following either foot shock stress or no foot shock (No FS) stress. […]

| Structure (SMILES) | Time spent in the light box after foot shock (FS) stress vs No FS | Time spent in the light box after foot shock (FS) stress vs No FS, with 5-HT1A antagonist pretreatment (WAY100635 15 min before 0.01 μg·kg−1 HU-580 i.p., P=0.05) |
| --- | --- | --- |
| C=C(C)[C@@H]1CCC(C)=C[C@H]1c1c(O)cc(CCCCC)c(C(=O)O)c1O [CBDA, Cannabidiolic acid] | spent less time in the light box following FS stress than following No FS stress | – |
| C=C(C)[C@@H]1CCC(C)=C[C@H]1c1c(O)cc(CCCCC)c(C(=O)OC)c1O [HU-580, Cannabidiolic Acid Methyl Ester] | reversed the effect of FS | spent less time in the light box following FS stress than following No FS stress |
